Data from patent publication US9220814B2, “Broad-spectrum antimicrobial compositions based on combinations of taurolidine and protamine and medical devices containing such compositions” (Ethicon, Inc., priority 2011, dated 2015).

Tests used:
S. aureus ACTT 6538 = assay: bactericidal two-dimensional concentration matrix of TU and PS in SST medium, plate count; type: cell-based, Staphylococcus aureus; conditions: TU alone at 100 ppm, 37° C. 24 hours
Method: Concentration gradients of TU and PS were diluted in an SST medium and made into a two-dimensional matrix. Bacteria of interest were inoculated to the matrix at about 10e6 CFU/ml. S. aureus ACTT 6538 or E. coli ATCC 25922 were used for this Example 2. After incubation at 37° C. for 24 hours, viable bacteria populations were measured by plate count. Log reduction (LR) was used as the end point for efficacy and was defined as: Log CFU/ml of untreated control−Log CFU/ml of treated. Synergistic index (SI) was defined as LR of a given combination−sum of LR of single component at the same concentration as in the combination. SI=0 indicated additive effect, SI=1, indicated 90% more bacterial cedality, SI=2 indicated 99% more bacterial cedality, SI=3, indicated 99.9% more bacterial cedality, etc., by combination than its stand alone compositions at the same usage, thus synergy.

[1] = cited from earlier work
[2] = system: Escherichia coli ATCC 25922; assay: in vitro bacteria attachment assay on coated mesh discs in SST medium; type: cell-based; conditions: treated mesh surface, serum containing media
Method: Taurolidine was dissolved at 4% wt./vol. in a 70% acetone 30% water vol./vol. mixture. Protamine sulfate was dissolved at 10% wt./vol. in water under warming. 50 μl of the taurolidine (TU) solution and 20 μl of the protamine (PS) solution were applied to each mesh disk using a pipette and allowed to dry at 50° C. until the majority of the liquid was gone and then stored under vacuum. First the taurolidine solution was applied, and then immediately thereafter the protamine sulfate solution was applied. The in vitro bacteria attachment assay was developed for its utility of indicating biofilm prevention potential of prototype mesh. Since bacterial attachment to a surface is the first step of biofilm formation, a surface treatment that inhibits bacterial attachment would reduce the chance of subsequent biofilm formation. The assay was conducted in SST (Serum Saline TSB) medium to mimic in vivo and clinical conditions. The formulation of SST is Tryptic Soy Broth (TSB):serum:saline in the ratio of 1:2:7. Each test article was incubated in SST inoculated with Staphylococcus aureus ACTT 6538 or Escherichia coli ATCC 25922 at about 6 Log CFU/ml. […] Viable bacteria populations were measured by plate count on TSA (Tryptic Soy agar) medium contain neutralizing agents. […]

[3] = system: Staphylococcus aureus ACTT 6538; assay: as above; type: cell-based; conditions: for Log reduction: 4 hours SST 37° C.
Method: Taurolidine was dissolved at 4% wt./vol. in a 70% acetone 30% water vol./vol. mixture. Protamine sulfate was dissolved at 10% wt./vol. in water under warming. 50 μl of the taurolidine (TU) solution and 20 μl of the protamine (PS) solution were applied to each mesh disk using a pipette and allowed to dry at 50° C. until the majority of the liquid was gone and then stored under vacuum. First the taurolidine solution was applied, and then immediately thereafter the protamine sulfate solution was applied. The in vitro bacteria attachment assay was developed for its utility of indicating biofilm prevention potential of prototype mesh. Since bacterial attachment to a surface is the first step of biofilm formation, a surface treatment that inhibits bacterial attachment would reduce the chance of subsequent biofilm formation. The assay was conducted in SST (Serum Saline TSB) medium to mimic in vivo and clinical conditions. The formulation of SST is Tryptic Soy Broth (TSB):serum:saline in the ratio of 1:2:7. Each test article was incubated in SST inoculated with Staphylococcus aureus ACTT 6538 or Escherichia coli ATCC 25922 at about 6 Log CFU/ml. After incubation with rotation of 60 rpm for 4 hours at 37° C., the mesh discs were washed in saline 3 times to remove unattached bacteria. Bacteria attached to the mesh were collected by sonication in saline with neutralizing agent. Viable bacteria populations were measured by plate count on TSA (Tryptic Soy agar) medium contain neutralizing agents. The use of neutralizing agents in bacteria suspension and plate count medium was to eliminate any carry over antimicrobial effect from the coating. The plates were incubated at 37° C. for 24 hours. The number of attached viable bacteria was reported as CFU/disc. In accordance with Example 1, surgical mesh discs coated with different stand alone and combinations of taurolidine+protamine sulfate were prepared. Protocols of mesh coating and in vitro attachment assay as in Example 1 were used for this Example 3.

[4] = system: Staphylococcus aureus ACTT 6538; assay: in vitro MBC (minimum bactericidal concentration) study of PS:TU ratios in SST medium; type: cell-based
Method: The range of the ratios of the components of the synergistic antimicrobial compositions of the present invention was obtained by an in vitro MBC (minimum bactericidal concentration) study. The study was conducted in SST medium inoculated with about 10^6 CFU/ml Staphylococcus aureus ACTT 6538. In vitro efficacy was evaluated for different ratios of PS and TU combinations along with the stand alone (i.e., individual) compositions at the same concentrations as in the combination composition. After incubation at 37° C. for 24 hours, viable bacteria populations were measured by plate count. Log reduction (LR) was used as the end point for efficacy and was defined as Log CFU/ml of untreated control−Log CFU/ml of treated. The synergistic index (SI) was defined as the LR of a given combination−sum of LR of single component at the same concentration as in the combination. An SI=0 indicated additive effect, SI=1, indicated 90% more bacterial cedality, SI=2 indicated 99% more bacterial cedality, SI=3, indicated 99.9% more bacterial cedality, etc., by a combination than its stand alone components at the same usage, thus synergy.

O=S1(=O)CCN(CN2CCS(=O)(=O)NC2)CN1 [TU, bis(1,1-dioxoperhydro-1,2,4-thiadiazinyl-4)-methane]
Log reduction (LR) (S. aureus ACTT 6538): 0
safe and well tolerated cumulative dose ([1]; cumulative doses): exceeding 300 g
safe and well tolerated systemic dose ([1]; systemic doses): exceeding 40 g/day
inhibition of attachment by E. coli (in words) [2]: less inhibition than the combination
Log reduction ([3]; TU 500 μg/disc alone): 1
Log reduction ([3]; TU 1000 μg/disc alone): 0.8
Log reduction ([3]; TU 2000 μg/disc alone): 2
inhibition of attachment by S. aureus (in words) ([3]; treated mesh surface, serum containing media): less inhibition than the combination
LR-TU ([4]; TU alone at same concentration as in PS:TU 1:1): 0
LR-TU ([4]; TU alone at same concentration as in PS:TU 1:10): 0
LR-TU ([4]; TU alone at same concentration as in PS:TU 1:50): 0
LR-TU ([4]; TU alone at same concentration as in PS:TU 1:100): 0
LR-TU ([4]; TU alone at same concentration as in PS:TU 1:200): 0
LR-TU ([4]; TU alone at same concentration as in PS:TU 10:1): 0
LR-TU ([4]; TU alone at same concentration as in PS:TU 50:1): 0
